What was measured:
[1] = In vitro rat microsomal stability assay; format: in vitro ADME, rat (Sprague-Dawley)
Outline: (§1)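 Incubations ran at 37 °C in NADPH-supplemented rat (Sprague-Dawley) or human hepatic microsomes.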

[2] = molecular target: T1, human TRPV3 (Homo sapiens, UniProt Q8NET8); assay: In vitro antagonism of recombinant human TRPV3 activation (FLIPR Tetra calcium assay, 2-APB as agonist); format: cell-based; conditions: HEK293 cells stably expressing human TRPV3; 2-APB 80 μM; range class; read-out: IC50 (reported range)
T1 construct: expressed in transfected cells
T1 sequence (Q8NET8 1-790): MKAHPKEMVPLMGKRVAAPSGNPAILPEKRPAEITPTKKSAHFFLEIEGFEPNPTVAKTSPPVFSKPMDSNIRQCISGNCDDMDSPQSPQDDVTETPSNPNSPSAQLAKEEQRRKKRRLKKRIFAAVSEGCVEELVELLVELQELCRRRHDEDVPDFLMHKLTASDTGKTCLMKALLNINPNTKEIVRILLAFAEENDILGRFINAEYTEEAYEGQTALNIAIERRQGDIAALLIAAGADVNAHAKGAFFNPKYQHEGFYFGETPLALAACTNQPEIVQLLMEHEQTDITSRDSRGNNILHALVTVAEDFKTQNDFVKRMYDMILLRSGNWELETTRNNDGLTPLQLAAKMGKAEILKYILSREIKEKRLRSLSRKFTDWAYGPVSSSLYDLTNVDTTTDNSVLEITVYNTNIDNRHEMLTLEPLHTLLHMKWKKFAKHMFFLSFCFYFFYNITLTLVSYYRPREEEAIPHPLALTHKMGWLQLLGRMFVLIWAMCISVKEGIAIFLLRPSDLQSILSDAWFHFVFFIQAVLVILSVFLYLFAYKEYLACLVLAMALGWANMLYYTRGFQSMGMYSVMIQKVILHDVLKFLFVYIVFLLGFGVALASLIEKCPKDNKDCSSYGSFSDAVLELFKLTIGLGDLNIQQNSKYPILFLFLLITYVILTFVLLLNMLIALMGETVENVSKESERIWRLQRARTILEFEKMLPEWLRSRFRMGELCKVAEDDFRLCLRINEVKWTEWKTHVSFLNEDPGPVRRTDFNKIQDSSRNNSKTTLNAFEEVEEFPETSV
Outline: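 HEK293 cells stably expressing human TRPV3, loaded with Calcium-4 dye for 90-120 min; compound added 3 min before 2-APB at 80 μM (its EC80). Fluorescence (max minus min) over 10 min expressed as % of maximal 2-APB response without antagonist; IC50 mostly averaged from n≧2 runs.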

[3] = In vitro human microsomal stability assay; format: in vitro ADME
Outline: as §1

[4] = Sprague-Dawley, rat, 0.5 h, 0.5 μM, pH 7.4
[5] = 0.5 μM substrate, 0.25 mg/mL microsomal protein, pH 7.4, 37° C., NADPH, 30 minutes

Row | SMILES | RAT MICROSOMAL STABILITY (% REMAINING AFTER 30 MINUTES) [1, 4] [%] | IC50 [2] [µM] | HUMAN MICROSOMAL STABILITY (% REMAINING AFTER 30 MINUTES) ([3]; human, 0.5 h, 0.5 μM, pH 7.4) [%] | RAT MICROSOMAL STABILITY (% REMAINING AFTER 30 MINUTES) [1, 5] [%] | HUMAN MICROSOMAL STABILITY (% REMAINING AFTER 30 MINUTES) [3, 5] [%]
1 | OC(c1ccccn1)C1(c2cccc(Cl)c2)CCCO1 (stereo not drawn) [Example 105, (syn)-[2-(3-chlorophenyl)tetrahydrofuran-2-yl](pyridin-2-yl)methanol] | 0.040 | 5.1 to 20 | 42 |  | 
2 | NC1CCC1C(O)C1(c2cccc(C(F)(F)F)c2)CCC1 (stereo not drawn) [Example 213, (2-aminocyclobutyl){1-[3-(trifluoromethyl)phenyl]cyclobutyl}methanol] | 72 | 1.1 to 5 | >85 |  | 
3 | OC(c1ccccn1)C1(c2ccc(C(F)(F)F)cc2)CCCO1 (stereo not drawn) [Example 89, (syn)-pyridin-2-yl{2-[4-(trifluoromethyl)phenyl]tetrahydrofuran-2-yl}-methanol] | 4.3 | 1.1 to 5 | 70 |  | 
4 | Cc1ccccc1C1(C(O)c2ccccn2)CCCO1 (stereo not drawn) [Example 90, [2-(2-methylphenyl)tetrahydrofuran-2-yl](pyridin-2-yl)methanol] | <0.01 | 0.05 to 0.5 | 35 |  | 
5 | OC(c1ccccn1)C1(c2nc3ccc(Cl)cc3o2)CCC1 (stereo not drawn) [Example 301, [1-(6-chloro-1,3-benzoxazol-2-yl)cyclobutyl](pyridin-2-yl)methanol] | 22 | 5.1 to 20 | 57 |  | 
6 | CC1(O)CC(c2cccc(C(F)(F)F)c2)(C(O)c2ccccn2)C1 (single isomer, unassigned) [Example 236] | 41 | 0.501 to 1 | 54 |  | 
7 | O=C1CC(c2cccc(C(F)(F)F)c2)(C(O)c2ccccn2)C1 (stereo not drawn) [Example 245, 3-[hydroxy(pyridin-2-yl)methyl]-3-[3-(trifluoromethyl)phenyl]cyclobutanone] | 72 | 1.1 to 5 | 57 |  | 
8 | OC(c1ccccn1)C1(c2cccc(OC(F)(F)F)c2)CC(F)(F)C1 (stereo not drawn) [Example 114, {3,3-difluoro-1-[3-(trifluoromethoxy)phenyl]cyclobutyl}(pyridin-2-yl)-methanol] | 11 | 0.05 to 0.5 | 6.9 |  | 
9 | OC1CC(c2ccc(OC(F)(F)F)cc2)(C(O)c2ccccn2)C1 [Example 132, (trans)-3-[(S)-hydroxy(pyridin-2-yl)methyl]-3-[4-(trifluoromethoxy)phenyl]-cyclobutanol] | 72 | 5.1 to 20 | 81 |  | 
10 | Cc1ccccc1C(C)C1(C(O)c2ccccn2)CCC1 (stereo not drawn) [Example 45, {1-[1-(2-methylphenyl)ethyl]cyclobutyl}(pyridin-2-yl)methanol] | 0.02 | 1.1 to 5 | 0.03 |  | 
11 | OC(c1ccccn1)C1(c2cccc(OC(F)(F)F)c2)CCOCC1 (stereo not drawn) [Example 66, pyridin-2-yl{4-[3-(trifluoromethoxy)phenyl]tetrahydro-2H-pyran-4-yl}-methanol] | 23 | 1.1 to 5 | 31 |  | 
12 | OC(c1ccccn1)C1(C2CCCc3ccccc32)CCC1 (stereo not drawn) [Example 56, pyridin-2-yl[1-(1,2,3,4-tetrahydronaphthalen-1-yl)cyclobutyl]methanol] | 1.1 | 1.1 to 5 | 0.42 |  | 
13 | CN1CCC(c2cccc(OC(F)(F)F)c2)(C(O)c2ccccn2)CC1 (stereo not drawn) [Example 146, {1-methyl-4-[3-(trifluoromethoxy)phenyl]piperidin-4-yl}(pyridin-2-yl)-methanol] |  | 5.1 to 20 |  | 8.9 | 84
14 | CC(c1ccc(F)cc1)C1(C(O)c2ccccn2)CCC1 (stereo not drawn) [Example 46, {1-[1-(4-fluorophenyl)ethyl]cyclobutyl}(pyridin-2-yl)methanol] | 0.23 | 5.1 to 20 | 11 |  | 
15 | OC(c1ccccn1)C1(C2CCOc3ccccc32)CCC1 (stereo not drawn) [Example 57, [1-(3,4-dihydro-2H-chromen-4-yl)cyclobutyl](pyridin-2-yl)methanol] | 10 | 5.1 to 20 | 16 |  | 
16 | OC(c1ccccn1)C1(c2ccc(F)c(C(F)(F)F)c2)CC(F)(F)C1 (stereo not drawn) [Example 139, {3,3-difluoro-1-[4-fluoro-3-(trifluoromethyl)phenyl]cyclobutyl}(pyridin-2-yl)methanol] | 26 | 0.501 to 1 | 41 |  | 
17 | OC(c1ccccn1)C1(C2CCc3ccccc32)CCC1 (stereo not drawn) [Example 55, [1-(2,3-dihydro-1H-inden-1-yl)cyclobutyl](pyridin-2-yl)methanol] | 0.29 | 5.1 to 20 | 1.6 |  | 
18 | CN1CC(c2ccc(C(F)(F)F)cc2)(C(O)c2ccccn2)C1 (stereo not drawn) [Example 155, {1-methyl-3-[4-(trifluoromethyl)phenyl]azetidin-3-yl}(pyridin-2-yl)methanol] | 76 | 5.1 to 20 | >85 |  | 
19 | OC(c1ccccn1)C1(c2ccc(C(F)(F)F)cc2)CC2(C1)OCCO2 (stereo not drawn) [Example 161, pyridin-2-yl{2-[4-(trifluoromethyl)phenyl]-5,8-dioxaspiro[3.4]oct-2-yl}-methanol] | <0.01 | 1.1 to 5 | 61 |  | 
20 | OC(c1ccccn1)C1(c2ccc(Cl)c(Cl)c2)CC(F)(F)C1 (stereo not drawn) [Example 82, [1-(3,4-dichlorophenyl)-3,3-difluorocyclobutyl](pyridin-2-yl)methanol] | 16 | 0.501 to 1 | 35 |  | 
21 | OC(c1ccccn1)C1(c2cc(C(F)(F)F)ccn2)CCC1 (stereo not drawn) [Example 116, pyridin-2-yl{1-[4-(trifluoromethyl)pyridin-2-yl]cyclobutyl}methanol] | 25 | 0.501 to 1 | 37 |  | 
22 | NC1CCCC1C(O)C1(c2ccc(C(F)(F)F)cc2)CCC1 (stereo not drawn) [Example 205, (2-aminocyclopentyl){1-[4-(trifluoromethyl)phenyl]cyclobutyl}methanol] | >85 | 1.1 to 5 | >85 |  | 
23 | OC(c1ccccn1)C1(c2cccc(C(F)(F)F)c2)CC(F)(F)C1 (stereo not drawn) [Example 113, {3,3-difluoro-1-[3-(trifluoromethyl)phenyl]cyclobutyl}(pyridin-2-yl)-methanol] | 18 | 0.05 to 0.5 | 24 |  | 
24 | O=C1CC(c2ccc(Cl)c(Cl)c2)([C@H](O)c2ccccn2)C1 [Example 117, 3-(3,4-dichlorophenyl)-3-[(S)-hydroxy(pyridin-2-yl)methyl]cyclobutanone] | 50 | 1.1 to 5 | 18 |  | 
